Laboratory results: patent US4293713A, “Novel 1,1,3,5-substituted biuret compound and a pharmaceutical composition containing the same” (priority 1979, dated 1981)

These molecules were tested on ddy strain of male mice (assay: Acute toxicity (oral, 7 days observation)). Details: 500 mg/kg, oral, mice, 7 days.
Type: in vivo
Description: (§1) Next, several tests for determining the pharmacological properties, in that acute toxicity, anti-pyretic activity, analgesic activity and anti-inflammatory activity of the present 1,1,3,5-substituted biuret compounds of the formula (1) were conducted and the test results are shown in Table (2). In the tests, each compounds to be tested was used as a suspension in 0.25% carboxymethylcellulose solution. Methods for testing are explained as follows:
The ddy strain of male mice (body weight, 20-25 g) were used as test animals. The mice were fasted overnight and the compound to be tested was administered orally. […] The lethal dose (mg/kg, body weight) of the test compound was determined in connection with the death number of mice/the number of mice tested. In Table 2, the values indicated with Δ marks are 50% lethal dose, LD50 (mg/kg, body weight).

Row | Structure (SMILES) | Acute toxicity, death number of mice/number of mice tested
1 | CN(C)C(=O)N(C)C(=O)Nc1c(F)c(F)cc(F)c1F [compound 4, 1,1,3-Trimethyl-5-(2,3,5,6-tetrafluorophenyl)-biuret] | 0/4
2 | CN(C)C(=O)N(C)C(=O)Nc1ccc([N+](=O)[O-])cc1 [compound 15, 1,1,3-Trimethyl-5-(4-nitrophenyl)biuret] | 2/4
3 | CC(=O)c1ccc(NC(=O)N(C)C(=O)N(C)C)cc1 [compound 27, 1,1,3-Trimethyl-5-(4-acetylphenyl)biuret] | 0/4

Same assay, conditions: 1000 mg/kg, oral, mice, 7 days

Row | Structure (SMILES) | Acute toxicity, death number of mice/number of mice tested
4 | CN(C)C(=O)N(C)C(=O)Nc1c(F)c(F)cc(F)c1F [compound 4, 1,1,3-Trimethyl-5-(2,3,5,6-tetrafluorophenyl)-biuret] | 4/4
5 | CN(C)C(=O)N(C)C(=O)Nc1ccccc1C(F)(F)F [compound 12, 1,1,3-Trimethyl-5-(2-trifluoromethylphenyl)biruet] | 1/4
6 | CN(C)C(=O)N(C)C(=O)Nc1cccc(C(F)(F)F)c1 [compound 13, 1,1,3-Trimethyl-5-(3-trifluoromethylphenyl)biuret] | 0/4
7 | COc1ccccc1NC(=O)N(C)C(=O)N(C)C [compound 16, 1,1,3-Trimethyl-5-(2-methoxyphenyl)biuret] | 0/4
8 | CC(=O)c1ccc(NC(=O)N(C)C(=O)N(C)C)cc1 [compound 27, 1,1,3-Trimethyl-5-(4-acetylphenyl)biuret] | 4/4

Same assay, conditions: 2000 mg/kg, oral, mice, 7 days

Row | Structure (SMILES) | Acute toxicity, death number of mice/number of mice tested
9 | CN(C)C(=O)N(C)C(=O)Nc1ccccc1Cl [compound 5, 1,1,3-Trimethyl-5-(2-chlorophenyl)biuret] | 0/4
10 | CN(C)C(=O)N(C)C(=O)Nc1cccc(C(F)(F)F)c1 [compound 13, 1,1,3-Trimethyl-5-(3-trifluoromethylphenyl)biuret] | 4/4
11 | CN(C)C(=O)N(C)C(=O)Nc1ccc(N(C)C)cc1 [compound 14, 1,1,3-Trimethyl-5-(4-dimethylaminophenyl)biuret] | 0/4
12 | COc1ccccc1NC(=O)N(C)C(=O)N(C)C [compound 16, 1,1,3-Trimethyl-5-(2-methoxyphenyl)biuret] | 2/4

What follows are molecules tested on ddy strain of male mice (assay: Analgesic activity, Haffner method). Details: 100 mg/kg oral, with threshold morphine hydrochloride s.c.
Type: in vivo, mouse (ddy strain
Description: as §1
According to the modified method reported by Fujimura et al., [Bulletin of the Institute for Chemical Research, Kyoto University, No. 25, pp. 36 (1951)], the ddy strain of male mice (body weight, 20-25 g) were used as test animals. The mice were fasted overnight, 100 mg/kg body weight of the test compound was administered orally, then 45 minutes after the administration, the threshold amount (1.5-2.5 mg/kg body weight) of morphine hydrochloride was injected subcutaneously. Then 1-hour pain reaction of the mouse caused by a clamp was observed. Analgesic activity of the test compound was calculated as the inhibitory ratio (%). In Table 2, the values in parentheses show the data obtained from the test by using the dosage other than 100 mg/kg body weight. Further, the values indicated with Δ marks show 50% effective dose, ED50 (mg/kg body weight).

Row | Structure (SMILES) | Analgesic activity, Haffner method, inhibitory ratio [%]
13 | CN(C)C(=O)N(C)C(=O)Nc1c(F)c(F)cc(F)c1F [compound 4, 1,1,3-Trimethyl-5-(2,3,5,6-tetrafluorophenyl)-biuret] | 50
14 | CN(C)C(=O)N(C)C(=O)Nc1ccccc1Cl [compound 5, 1,1,3-Trimethyl-5-(2-chlorophenyl)biuret] | 37.5
15 | CN(C)C(=O)N(C)C(=O)Nc1ccccc1C(F)(F)F [compound 12, 1,1,3-Trimethyl-5-(2-trifluoromethylphenyl)biruet] | 37.5
16 | CN(C)C(=O)N(C)C(=O)Nc1ccc(N(C)C)cc1 [compound 14, 1,1,3-Trimethyl-5-(4-dimethylaminophenyl)biuret] | 50
17 | CN(C)C(=O)N(C)C(=O)Nc1ccc([N+](=O)[O-])cc1 [compound 15, 1,1,3-Trimethyl-5-(4-nitrophenyl)biuret] | 50
18 | COc1ccccc1NC(=O)N(C)C(=O)N(C)C [compound 16, 1,1,3-Trimethyl-5-(2-methoxyphenyl)biuret] | 25
19 | CC(=O)c1ccc(NC(=O)N(C)C(=O)N(C)C)cc1 [compound 27, 1,1,3-Trimethyl-5-(4-acetylphenyl)biuret] | 37.5

Same assay, conditions: oral, with threshold morphine hydrochloride s.c., range in parentheses

Row | Structure (SMILES) | Analgesic activity, Haffner method, 50% effective dose, ED50 (values with Δ marks)
20 | CN(C)C(=O)N(C)C(=O)Nc1cccc(C(F)(F)F)c1 [compound 13, 1,1,3-Trimethyl-5-(3-trifluoromethylphenyl)biuret] | 64(37-112) mg/kg

Each molecule was assayed on Wistar strain of male rats (assay: Anti-pyretic activity (dry-yeast induced fever)). Details: oral, up to 4 hours after administration, dose not given.
Type: in vivo, rat (Wistar strain
Description: as §1
According to the method reported by Tanabe [Folia Pharmacologia Japonica, Vol. 73, pp. 803 (1977)], the Wistar strain of male rats (150-180 g body weight) were used as test animals. The rats were fasted overnight, and 1 ml/100 g (body weight) of 10% dry-yeast suspension were subcutaneously injected on the back of the rats. Five hours after the injection, the test compound was administered orally, then the body temperature of the rat was measured at time sequences. Anti-pyretic activity of the test compound was determined as the FI (febril index) by integrating pyrogenetic curve up to 4 hours after the administration of the test compound with time, and indicated as inhibitory ratio (%) shown by the following formula, [formula]

Row | Structure (SMILES) | Anti-pyretic activity, inhibitory ratio of febril index (FI) [%]
21 | CN(C)C(=O)N(C)C(=O)Nc1c(F)c(F)cc(F)c1F [compound 4, 1,1,3-Trimethyl-5-(2,3,5,6-tetrafluorophenyl)-biuret] | 33
22 | CN(C)C(=O)N(C)C(=O)Nc1ccccc1Cl [compound 5, 1,1,3-Trimethyl-5-(2-chlorophenyl)biuret] | 66
23 | CN(C)C(=O)N(C)C(=O)Nc1ccccc1C(F)(F)F [compound 12, 1,1,3-Trimethyl-5-(2-trifluoromethylphenyl)biruet] | 65
24 | CN(C)C(=O)N(C)C(=O)Nc1cccc(C(F)(F)F)c1 [compound 13, 1,1,3-Trimethyl-5-(3-trifluoromethylphenyl)biuret] | 62
25 | CN(C)C(=O)N(C)C(=O)Nc1ccc(N(C)C)cc1 [compound 14, 1,1,3-Trimethyl-5-(4-dimethylaminophenyl)biuret] | 26
26 | CN(C)C(=O)N(C)C(=O)Nc1ccc([N+](=O)[O-])cc1 [compound 15, 1,1,3-Trimethyl-5-(4-nitrophenyl)biuret] | 26
27 | COc1ccccc1NC(=O)N(C)C(=O)N(C)C [compound 16, 1,1,3-Trimethyl-5-(2-methoxyphenyl)biuret] | 13
28 | CC(=O)c1ccc(NC(=O)N(C)C(=O)N(C)C)cc1 [compound 27, 1,1,3-Trimethyl-5-(4-acetylphenyl)biuret] | 36

Each molecule was assayed on Wistar strain of male rats (assay: Anti-inflammatory activity, acute carrageenin-induced inflammatory test). Details: Rattus norvegicus, po, 2 h, read-out: Anti-inflammatory activity, inflammation inhibitory ratio (2 hours value).
Type: in vivo, rat (Wistar strain
Description: as §1
According to the method of acute carrageenin-induced inflammatory test [Folia Pharmacologia Japonica, Vol. 56, pp. 575 (1960)], the Wistar strain of male rats (body weight, 150-180 g) were used as test animals. The rats were fasted overnight, 100 mg/kg body weight of the test compound was administered orally, then 1 hour after the administration, 0.1 ml of 1% carrageenin solution, as the inflammation inducing agent, was injected subcutaneously to the hindpaw of the rat and the volume of the hindpaw was measured at time sequences. Anti-inflammatory activity of the test compound was calculated as inflammation inhibitory ratio (%) at 3 hours after the injection of the inflammation inducing agent.

Row | Structure (SMILES) | inhibition in vivo at 100 mg/kg [%]
29 | CN(C)C(=O)N(C)C(=O)Nc1cccc(C(F)(F)F)c1 [compound 13, 1,1,3-Trimethyl-5-(3-trifluoromethylphenyl)biuret] | 32
30 | CC(=O)c1ccc(NC(=O)N(C)C(=O)N(C)C)cc1 [compound 27, 1,1,3-Trimethyl-5-(4-acetylphenyl)biuret] | 31

Same assay, conditions: Rattus norvegicus, po, 3 h, read-out: Anti-inflammatory activity, inflammation inhibitory ratio

Row | Structure (SMILES) | inhibition in vivo at 100 mg/kg [%]
31 | CN(C)C(=O)N(C)C(=O)Nc1c(F)c(F)cc(F)c1F [compound 4, 1,1,3-Trimethyl-5-(2,3,5,6-tetrafluorophenyl)-biuret] | 24
32 | CN(C)C(=O)N(C)C(=O)Nc1ccccc1C(F)(F)F [compound 12, 1,1,3-Trimethyl-5-(2-trifluoromethylphenyl)biruet] | 66
33 | CN(C)C(=O)N(C)C(=O)Nc1ccc([N+](=O)[O-])cc1 [compound 15, 1,1,3-Trimethyl-5-(4-nitrophenyl)biuret] | 32

Same assay, conditions: Rattus norvegicus; 100 mg/kg oral, rats, 2 hours value; read-out: Anti-inflammatory activity, inflammation inhibitory ratio (2 hours value)

Row | Structure (SMILES) | inhibition in vivo at 100 mg/kg [%]
34 | CN(C)C(=O)N(C)C(=O)Nc1ccc(N(C)C)cc1 [compound 14, 1,1,3-Trimethyl-5-(4-dimethylaminophenyl)biuret] | 32
35 | COc1ccccc1NC(=O)N(C)C(=O)N(C)C [compound 16, 1,1,3-Trimethyl-5-(2-methoxyphenyl)biuret] | 35

Same assay, conditions: Rattus norvegicus; 100 mg/kg oral, rats, 3 hours after carrageenin; read-out: Anti-inflammatory activity, inflammation inhibitory ratio

Row | Structure (SMILES) | inhibition in vivo at 100 mg/kg [%]
36 | CN(C)C(=O)N(C)C(=O)Nc1ccccc1Cl [compound 5, 1,1,3-Trimethyl-5-(2-chlorophenyl)biuret] | 38

The molecules below were run on ddy strain of male mice (assay: Analgesic activity, acetic acid-induced stretching method). Details: Mus musculus, po, read-out: Analgesic activity, acetic acid-induced stretching method, inhibitory ratio.
Type: in vivo, mouse (ddy strain
Description: as §1
According to the method reported by Koster et al., [Fed. Proc., Vol. 18, pp. 412 (1959)], the ddy strain of male mice (body weight, 20-25 g) were used as test animals. The mice were fasted overnight, 100 mg/kg body weight of the test compound was administered orally, then 1 hour after the administration, 0.2 ml of 0.7% acetic acid solution was injected intraperitoneally. The acetic acid-induced stretching symptom of mouse was observed. Analgesic activity of the test compound was calculated as the inhibitory ratio (%). In Table 2, the values in Parentheses show the data obtained from the test by using the dosage other than 100 mg/kg body weight. Further, the values indicated with Δ marks show 50% effective dose, ED50 (mg/kg body weight).

Row | Structure (SMILES) | inhibition in vivo at 100 mg/kg [%]
37 | CN(C)C(=O)N(C)C(=O)Nc1c(F)c(F)cc(F)c1F [compound 4, 1,1,3-Trimethyl-5-(2,3,5,6-tetrafluorophenyl)-biuret] | 87.5
38 | CN(C)C(=O)N(C)C(=O)Nc1ccccc1Cl [compound 5, 1,1,3-Trimethyl-5-(2-chlorophenyl)biuret] | 50
39 | CN(C)C(=O)N(C)C(=O)Nc1ccccc1C(F)(F)F [compound 12, 1,1,3-Trimethyl-5-(2-trifluoromethylphenyl)biruet] | 12.5
40 | CN(C)C(=O)N(C)C(=O)Nc1cccc(C(F)(F)F)c1 [compound 13, 1,1,3-Trimethyl-5-(3-trifluoromethylphenyl)biuret] | 37.5
41 | CN(C)C(=O)N(C)C(=O)Nc1ccc(N(C)C)cc1 [compound 14, 1,1,3-Trimethyl-5-(4-dimethylaminophenyl)biuret] | 62.5
42 | COc1ccccc1NC(=O)N(C)C(=O)N(C)C [compound 16, 1,1,3-Trimethyl-5-(2-methoxyphenyl)biuret] | 37.5

Same assay, conditions: Mus musculus; 100 mg/kg oral, mice; read-out: Analgesic activity, acetic acid-induced stretching method, inhibitory ratio

Row | Structure (SMILES) | inhibition in vivo at 100 mg/kg [%]
43 | CN(C)C(=O)N(C)C(=O)Nc1ccc([N+](=O)[O-])cc1 [compound 15, 1,1,3-Trimethyl-5-(4-nitrophenyl)biuret] | 100
44 | CC(=O)c1ccc(NC(=O)N(C)C(=O)N(C)C)cc1 [compound 27, 1,1,3-Trimethyl-5-(4-acetylphenyl)biuret] | 62.5
